# Measured values as given in US20070027080A1, “Method for treatment of vitiligo” (priority 2005, published 2007).
# Key:
# fast spreading vitiligo = assay: Clinical trial: disease activity (arrest of spread) of fast spreading vitiligo, OMP of beta methasone with or without the peptide; format: in vivo, human
# From the text: (§1) That this happens was shown in a clinical trial on human volunteers. The above twin objectives were accomplished. FIG. 2a describes two vitiligo patches at the start of treatment of oral steroids, while 2b describes the same patches at the end of 3 months of treatment with oral steroids while at the same time bFGF peptide(s) lotion was applied locally once a day on the lower vitiligo patch for the duration of intake of oral steroids. […] The arrest of the fast spread of the disease was accomplished to the same extent of 88% at the end of 6 months of treatment with oral steroids and the result was not altered by the local application of bFGF peptide(s) lotion (See table 3 for more details)
# [1] = tested on: vitiligo patches of volunteers; assay: Clinical trial: repigmentation of vitiligo patches, OMP of beta methasone with or without local application of the peptide; format: in vivo, human
# From the text: as §1
# At the end of 3 months of combinatorial treatment with steroids and local application of bFGF peptide(s) lotion more than 3 fold more patients got pigmented to a marked extent than with steroid alone (See Table 4 for more details). The percentage of volunteers who had moderate and marked rate of repigmentation with combinatorial therapy at the end of three months of treatment is twice than with the steroid therapy alone.
smiles,measurement,setting,value
"C[C@H]1C[C@H]2[C@@H]3CCC4=CC(=O)C=C[C@]4(C)[C@@]3(F)[C@@H](O)C[C@]2(C)[C@@]1(O)C(=O)CO [OMP Alone, beta methasone]",No. of patients where the disease was arrested with time,fast spreading vitiligo; At 3 months,12
same,Percentage of patients where the disease was arrested,fast spreading vitiligo; At 3 months,75%
same,No. of patients where the disease was arrested with time,fast spreading vitiligo; At 6 months,14
same,Percentage of patients where the disease was arrested,fast spreading vitiligo; At 6 months,87.50%
same,Percentage of patients where the disease was arrested,"fast spreading vitiligo; At 6 months, listed as oral steroids",88%
same,"Marked repigmentation, % of volunteers",[1]; At 3 months,12.5%
same,"Marked repigmentation, number of volunteers",[1]; At 3 months,2
same,"Minimal repigmentation, % of volunteers",[1]; At 3 months,68.75%
same,"Minimal repigmentation, number of volunteers",[1]; At 3 months,11
same,"Moderate repigmentation, % of volunteers",[1]; At 3 months,18.75%
same,"Moderate repigmentation, number of volunteers",[1]; At 3 months,3
same,"Marked repigmentation, % of volunteers",[1]; At 6 months,25%
same,"Marked repigmentation, number of volunteers",[1]; At 6 months,4
same,"Minimal repigmentation, % of volunteers",[1]; At 6 months,50%
same,"Minimal repigmentation, number of volunteers",[1]; At 6 months,8
same,"Moderate repigmentation, % of volunteers",[1]; At 6 months,25%
same,"Moderate repigmentation, number of volunteers",[1]; At 6 months,4
